Test results: ChEMBL document CHEMBL2440076, “New triarylpyrazoles as broad-spectrum anticancer agents: design, synthesis, and biological evaluation” (Eur J Med Chem, 2013)

Experiments:
Format in all cases: functional
[1] = tested on: DU-145; experiment: Growth inhibition of human DU145 cells assessed as cell growth at 5X10'-6 M after 48 hrs by sulforhodamine B assay; details: DU-145, 48 h, read-out: Activity
[2] = tested on: HL-60(TB); experiment: Growth inhibition of human HL-60(TB) cells assessed as cell growth at 3X10'-5 M after 48 hrs by sulforhodamine B assay; details: HL-60, 48 h, read-out: Activity
[3] = tested on: ACHN; experiment: Growth inhibition of human ACHN cells assessed as cell growth at 3X10'-6 M after 48 hrs by sulforhodamine B assay; details: read-out: Activity
[4] = tested on: A549; experiment: Growth inhibition of human A549/ATCC cells assessed as cell growth at 3X10'-9 M after 48 hrs by sulforhodamine B assay; details: A549, 48 h, read-out: Activity
[5] = tested on: MDA-MB-231; experiment: Growth inhibition of human MDA-MB-231 cells assessed as cell growth at 3X10'-9 M after 48 hrs by sulforhodamine B assay; details: MDA-MB-231, 48 h, read-out: Activity
[6] = tested on: CCRF-CEM; experiment: Growth inhibition of human CCRF-CEM cells assessed as cell growth at 3X10'-9 M after 48 hrs by sulforhodamine B assay; details: read-out: Activity
[7] = tested on: HT-29; experiment: Growth inhibition of human HT-29 cells assessed as cell growth at 3X10'-8 M after 48 hrs by sulforhodamine B assay; details: HT-29, 48 h, read-out: Activity
[8] = tested on: PC-3; experiment: Growth inhibition of human PC3 cells assessed as cell growth at 3X10'-9 M after 48 hrs by sulforhodamine B assay; details: PC-3, 48 h, read-out: Activity
[9] = tested on: HCT-15; experiment: Growth inhibition of human HCT15 cells assessed as cell growth at 3X10'-9 M after 48 hrs by sulforhodamine B assay; details: HCT-15, 48 h, read-out: Activity
[10] = tested on: UO-31; experiment: Growth inhibition of human UO31 cells assessed as cell growth at 3X10'-9 M after 48 hrs by sulforhodamine B assay; details: UO-31, 48 h, read-out: Activity
[11] = tested on: SK-MEL-5; experiment: Growth inhibition of human SK-MEL-5 cells assessed as cell growth at 3X10'-6 M after 48 hrs by sulforhodamine B assay; details: SK-MEL-5, 48 h, read-out: Activity
[12] = tested on: NCI-H226; experiment: Growth inhibition of human NCI-H226 cells assessed as cell growth at 3X10'-8 M after 48 hrs by sulforhodamine B assay; details: NCI-H226, 48 h, read-out: Activity
[13] = tested on: K562; experiment: Growth inhibition of human K562 cells assessed as cell growth at 3X10'-5 M after 48 hrs by sulforhodamine B assay; details: K562, 48 h, read-out: Activity
[14] = tested on: SF-268; experiment: Growth inhibition of human SF268 cells assessed as cell growth at 3X10'-5 M after 48 hrs by sulforhodamine B assay; details: SF-268, 48 h, read-out: Activity
[15] = tested on: NCI-H226; experiment: Growth inhibition of human NCI-H226 cells assessed as cell growth at 3X10'-6 M after 48 hrs by sulforhodamine B assay; details: NCI-H226, 48 h, read-out: Activity
[16] = tested on: HOP-62; experiment: Growth inhibition of human HOP62 cells assessed as cell growth at 3X10'-9 M after 48 hrs by sulforhodamine B assay; details: HOP-62, 48 h, read-out: Activity
[17] = tested on: PC-3; experiment: Growth inhibition of human PC3 cells assessed as cell growth at 3X10'-6 M after 48 hrs by sulforhodamine B assay; details: PC-3, 48 h, read-out: Activity
[18] = Growth inhibition of human Hs 578T cells assessed as cell growth at 3X10'-7 M after 48 hrs by sulforhodamine B assay; details: read-out: Activity
[19] = tested on: NCI-H322M; experiment: Growth inhibition of human NCI-H322M cells assessed as cell growth at 3X10'-8 M after 48 hrs by sulforhodamine B assay; details: read-out: Activity
[20] = tested on: U-251; experiment: Growth inhibition of human U251 cells assessed as cell growth at 3X10'-8 M after 48 hrs by sulforhodamine B assay; details: U-251, 48 h, read-out: Activity
[21] = tested on: 786-0; experiment: Growth inhibition of human 786-0 cells assessed as cell growth at 3X10'-8 M after 48 hrs by sulforhodamine B assay; details: 786-0, 48 h, read-out: Activity
[22] = tested on: NCI-H322M; experiment: Growth inhibition of human NCI-H322M cells assessed as cell growth at 3X10'-7 M after 48 hrs by sulforhodamine B assay; details: read-out: Activity
[23] = tested on: SK-MEL-28; experiment: Growth inhibition of human SK-MEL-28 cells assessed as cell growth at 3X10'-8 M after 48 hrs by sulforhodamine B assay; details: SK-MEL-28, 48 h, read-out: Activity
[24] = tested on: IGROV-1; experiment: Growth inhibition of human IGROV1 cells assessed as cell growth at 3X10'-9 M after 48 hrs by sulforhodamine B assay; details: IGROV-1, 48 h, read-out: Activity
[25] = tested on: HL-60(TB); experiment: Growth inhibition of human HL-60(TB) cells assessed as cell growth at 3X10'-7 M after 48 hrs by sulforhodamine B assay; details: HL-60, 48 h, read-out: Activity
[26] = tested on: OVCAR-3; experiment: Growth inhibition of human OVCAR3 cells assessed as cell growth at 3X10'-6 M after 48 hrs by sulforhodamine B assay; details: OVCAR-3, 48 h, read-out: Activity
[27] = tested on: NCI-H522; experiment: Growth inhibition of human NCI-H522 cells assessed as cell growth at 3X10'-6 M after 48 hrs by sulforhodamine B assay; details: NCI-H522, 48 h, read-out: Activity
[28] = tested on: MDA-MB-468; experiment: Growth inhibition of human MDA-MB-468 cells assessed as cell growth at 3X10'-6 M after 48 hrs by sulforhodamine B assay; details: MDA-MB-468, 48 h, read-out: Activity
[29] = tested on: MOLT-4; experiment: Growth inhibition of human MOLT4 cells assessed as cell growth at 3X10'-6 M after 48 hrs by sulforhodamine B assay; details: MOLT-4, 48 h, read-out: Activity
[30] = tested on: DU-145; experiment: Growth inhibition of human DU145 cells assessed as cell growth at 3X10'-7 M after 48 hrs by sulforhodamine B assay; details: DU-145, 48 h, read-out: Activity
[31] = tested on: SK-MEL-2; experiment: Growth inhibition of human SK-MEL-2 cells assessed as cell growth at 3X10'-9 M after 48 hrs by sulforhodamine B assay; details: SK-MEL-2, 48 h, read-out: Activity
[32] = tested on: OVCAR-3; experiment: Growth inhibition of human OVCAR3 cells assessed as cell growth at 3X10'-8 M after 48 hrs by sulforhodamine B assay; details: OVCAR-3, 48 h, read-out: Activity
[33] = tested on: MDA-MB-435; experiment: Growth inhibition of human MDA-MB-435 cells assessed as cell growth at 3X10'-9 M after 48 hrs by sulforhodamine B assay; details: MDA-MB-435, 48 h, read-out: Activity
[34] = tested on: NCI-H460; experiment: Growth inhibition of human NCI-H460 cells assessed as cell growth at 3X10'-9 M after 48 hrs by sulforhodamine B assay; details: NCI-H460, 48 h, read-out: Activity
[35] = tested on: MCF7; experiment: Growth inhibition of human MCF7 cells assessed as cell growth at 3X10'-9 M after 48 hrs by sulforhodamine B assay; details: MCF7, 48 h, read-out: Activity
[36] = tested on: HOP-92; experiment: Growth inhibition of human HOP92 cells assessed as cell growth at 3X10'-6 M after 48 hrs by sulforhodamine B assay; details: HOP-92, 48 h, read-out: Activity

SMILES | growth at 5 µM [1] [%] | growth at 30 µM [2] [%] | growth at 3 µM [3] [%] | growth at 0.003 µM [4] [%] | growth at 0.003 µM [5] [%] | growth at 0.003 µM [6] [%] | growth at 0.03 µM [7] [%] | growth at 0.003 µM [8] [%] | growth at 0.003 µM [9] [%] | growth at 0.003 µM [10] [%] | growth at 3 µM [11] [%] | growth at 0.03 µM [12] [%] | growth at 30 µM [13] [%] | growth at 30 µM [14] [%] | growth at 3 µM [15] [%] | growth at 0.003 µM [16] [%] | growth at 3 µM [17] [%] | growth at 0.3 µM [18] [%] | growth at 0.03 µM [19] [%] | growth at 0.03 µM [20] [%] | further results
O=C(Nc1cccc(-n2cc(-c3ccncc3)c(-c3ccc(Cl)c(O)c3)n2)c1)c1ccc(N2CCOCC2)c(C(F)(F)F)c1 | 46 |  |  |  |  |  |  |  |  |  |  |  |  |  |  |  |  |  |  |  | 
COc1cc(-c2nn(-c3cccc(NC(=O)c4ccc(Cl)c(C(F)(F)F)c4)c3)cc2-c2ccncc2)ccc1Cl |  | 23 | 47 | 96 | 99 | 96 | 99 | 94 | 99 | 82 | 24 | 92 | 11 | 23 | 59 | 98 | 31 | 82 | 90 | 99 | growth at 0.03 µM [21]: 96%; growth at 0.3 µM [22]: 92%; growth at 0.03 µM [23]: 100%; growth at 0.003 µM [24]: 94%; growth at 0.3 µM [25]: 116%; growth at 3 µM [26]: 43%; growth at 3 µM [27]: 12%; growth at 3 µM [28]: 52%; growth at 3 µM [29]: 57%; growth at 0.3 µM [30]: 98%; growth at 0.003 µM [31]: 92%; growth at 0.03 µM [32]: 104%; growth at 0.003 µM [33]: 95%; growth at 0.003 µM [34]: 103%; growth at 0.003 µM [35]: 93%
O=C(Nc1cccc(-n2cc(-c3ccncc3)c(-c3ccc(Cl)c(O)c3)n2)c1)Nc1cc(C(F)(F)F)cc(C(F)(F)F)c1 | 5 |  |  |  |  |  |  |  |  |  |  |  |  |  |  |  |  |  |  |  | 
COc1cc(-c2nn(-c3cccc(NC(=O)Nc4cccc(C(F)(F)F)c4)c3)cc2-c2ccncc2)ccc1Cl | 14 |  |  |  |  |  |  |  |  |  |  |  |  |  |  |  |  |  |  |  | 
O=C(Nc1cccc(-n2cc(-c3ccncc3)c(-c3ccc(Cl)c(O)c3)n2)c1)Nc1ccc(Cl)c(Cl)c1 |  | 1 | 5 | 96 | 102 | 91 | 104 | 103 | 102 | 86 | -73 | 97 | 4 | -21 | 28 | 96 | 6 | 82 | 100 | 100 | growth at 0.03 µM [21]: 96%; growth at 0.3 µM [22]: 113%; growth at 0.03 µM [23]: 102%; growth at 0.003 µM [24]: 103%; growth at 3 µM [26]: -1%; growth at 3 µM [36]: -26%; growth at 3 µM [27]: 14%; growth at 3 µM [28]: 2%; growth at 3 µM [29]: 19%; growth at 0.3 µM [30]: 105%; growth at 0.003 µM [31]: 98%; growth at 0.03 µM [32]: 100%; growth at 0.003 µM [33]: 95%; growth at 0.003 µM [34]: 108%; growth at 0.003 µM [35]: 97%
